Source: patent US11299760B2 (Amgen Inc., priority 2013, dated 2022)

Key:
Format in all cases: cell-based, Chinese hamster
[1] = test system: MAb A producing cells; assay: GM130 immunofluorescence microscopy of Golgi; details: day 10 mock perfusion cultures; monensin-treated vs control
Procedure: (§1) On day 10, cell pellets were washed once with cold PBS and fixed in 4% paraformaldehyde for 10 minutes on ice. Cells were then washed once in again in cold PBS and stored at 4° C. until they were immunofluorescently stained as described below
(§2) Monensin is known to cause gross changes in Golgi architecture characterized by swollen and fragmented cisternae. The structure of the Golgi of CHO production cell lines after monensin treatment was analyzed using a panel of five different commercially available antibodies against various Golgi proteins with a passaging culture of recombinant cells producing MAb A using immunofluorescence microscopy.
(§3) Next, day 10 control and monensin-treated mock perfusion cultures of MAb A producing cells and MAb C producing cells were subjected to immunofluorescence microscopy using GM130 antibody. Paraformaldehyde fixed cell pellets were permeablized with 0.1% TritonX-100 made in PBS. Pellets were washed with PBSA (0.5% BSA in PBS) and incubated with GM130 antibody (BD Biosciences, San Jose, Calif.) diluted 1:50 in PBSA. Cells were washed thrice with PBSA and incubated with Alexa 488 conjugated mouse secondary antibody (Invitrogen, Grand Island, N.Y.) diluted 1:1000 in PBSA. […] Images were captured using Zeiss 510 microscope (Carl Zeiss, Inc., Jena, Germany) with 63× water immersion lens and analyzed using LSM image browser software.

[2] = test system: MAb C producing cells; assay: GM130 immunofluorescence microscopy of Golgi; details: day 10; increasing monensin culminating at 100 nM from days 7-10
Procedure: as §1, §2, §3

[3] = test system: recombinant CHO cell line producing an antibody (MAb A); assay: six day batch assay, glycan analysis (HILIC); set-up: Total HM: unit not given here; details: for Man5 / Man6 / Man7 / Man8a / Man8b / Total HM: day 6
Procedure: Cells were centrifuged at 1500 rpm for five minutes and seeded at 2×10^6 cells per ml into batch production medium in a 24 deep-well plate at a final volume of 3 ml.
Cell density and viability were measured by Guava easyCyte flow cytometer (Milipore, Billerica, Mass.) with the ViaCount application. Cultures were spun down, supernatants were filtered on 0.4 micron filters, and were analyzed for titer and glycan distribution.
For glycan analysis, Peptide-N-Glycosidase F (PNGAse F)—released N-linked glycans from protein A purified antibodies were labeled with 2-aminobenzoic acid (2-AA) and separated by HILIC (hydrophilic interaction liquid chromatography) in-line with a fluorescence detector. The separation was performed using a Waters Acquity UPLC (Waters, Milford, Mass.). In-line mass spectrometry (MS), using an ion trap mass spectrometer (LTQ; Thermo Scientific, Waltham, Mass.) in positive mode, was incorporated to accommodate mass determination of species. Glycans were injected and bound to the column in high organic conditions and were then eluted with an increasing gradient of an aqueous ammonium formate buffer. Fast separation times were achieved using a […] small particle column format (Acquity UPLC BEH Glycan Column, 2.1×100 mm; Waters, Milford, Mass.).

For `CC[C@@]1([C@@H]2O[C@@H]([C@H]3O[C@@](O)(CO)[C@H](C)C[C@@H]3C)C[C@@H]2C)CC[C@H]([C@]2(C)CC[C@]3(C[C@H](O)[C@@H](C)[C@@H]([C@@H](C)[C@@H](OC)[C@H](C)C(=O)O)O3)O2)O1` [monensin], the “Golgi morphology (GM130 staining)” value [1] was “No morphological difference”, the “Golgi morphology (GM130 staining)” value [2] was “punctate distribution of GM130 protein” and the Man5 ([3]; 0.1 nM monensin added day 1) was 0.775%. The Man6 ([3]; 0.1 nM monensin added day 1) was 0.09%, the Man7 ([3]; 0.1 nM monensin added day 1) was 0% and the Man8a ([3]; 0.1 nM monensin added day 1) was 0.31%. The Man8b ([3]; 0.1 nM monensin added day 1) was 0%, the “Total HM” value ([3]; 0.1 nM monensin added day 1) was 0.8 and the Man5 ([3]; 0.5 nM monensin added day 1) was 0.785%. It also gave a Man6 ([3]; 0.5 nM monensin added day 1) of 0.07%, a Man7 ([3]; 0.5 nM monensin added day 1) of 0% and a Man8a ([3]; 0.5 nM monensin added day 1) of 0.3%. The Man8b ([3]; 0.5 nM monensin added day 1) was 0%, the “Total HM” value ([3]; 0.5 nM monensin added day 1) was 0.85 and the Man5 ([3]; 1 nM monensin added day 1) was 0.89%. For the same compound, the Man6 ([3]; 1 nM monensin added day 1) was 0.13%, the Man7 ([3]; 1 nM monensin added day 1) was 0.04% and the Man8a ([3]; 1 nM monensin added day 1) was 0.29%. For the same compound, the Man8b ([3]; 1 nM monensin added day 1) was 0%, the “Total HM” value ([3]; 1 nM monensin added day 1) was 1.05 and the Man5 ([3]; 5 nM monensin added day 1) was 1.12%. The Man6 ([3]; 5 nM monensin added day 1) was 0.18%, the Man7 ([3]; 5 nM monensin added day 1) was 0.27% and the Man8a ([3]; 5 nM monensin added day 1) was 0.37%. For the same compound, the Man8b ([3]; 5 nM monensin added day 1) was 0%, the “Total HM” value ([3]; 5 nM monensin added day 1) was 1.35 and the Man5 ([3]; 10 nM monensin added day 1) was 1.485%. For the same compound, the Man6 ([3]; 10 nM monensin added day 1) was 0.16%, the Man7 ([3]; 10 nM monensin added day 1) was 0% and the Man8a ([3]; 10 nM monensin added day 1) was 0.315%. The Man8b ([3]; 10 nM monensin added day 1) was 0%, the “Total HM” value ([3]; 10 nM monensin added day 1) was 1.6 and the “increase of total high mannose glycans on the recombinant antibody” value ([3]; 25 nM bolus on day 0 or 200 nM or 100 nM bolus on day 3) was 6 to 30 fold. It also gave a Man5 ([3]; 25 nM monensin added day 1) of 6.43%, a Man6 ([3]; 25 nM monensin added day 1) of 0.59% and a Man7 ([3]; 25 nM monensin added day 1) of 0.59%. For the same compound, the Man8a ([3]; 25 nM monensin added day 1) was 0.39%, the Man8b ([3]; 25 nM monensin added day 1) was 0.115% and the “Total HM” value ([3]; 25 nM monensin added day 1) was 7.65. The “effect on high mannose and on cell growth, viability and titer” value ([3]; 50 nM incubated for six days and 500 nM incubated for three days) was “large increases in high mannose at the expense of cell growth, viability and titer”, the Man5 ([3]; 50 nM monensin added day 1) was 15.725% and the Man6 ([3]; 50 nM monensin added day 1) was 4.64%. It also gave a Man7 ([3]; 50 nM monensin added day 1) of 4.73%, a Man8a ([3]; 50 nM monensin added day 1) of 0.8% and a Man8b ([3]; 50 nM monensin added day 1) of 2.02%. For the same compound, the “Total HM” value ([3]; 50 nM monensin added day 1) was 25.1, the Man5 ([3]; 100 nM monensin added day 3) was 19.365% and the Man6 ([3]; 100 nM monensin added day 3) was 7.475%. The Man7 ([3]; 100 nM monensin added day 3) was 6.795%, the Man8a ([3]; 100 nM monensin added day 3) was 0.8% and the Man8b ([3]; 100 nM monensin added day 3) was 2.635%. The “Total HM” value ([3]; 100 nM monensin added day 3) was 33.65, the Man5 ([3]; 200 nM monensin added day 3) was 18.585% and the Man6 ([3]; 200 nM monensin added day 3) was 4.975%. It also gave a Man7 ([3]; 200 nM monensin added day 3) of 3.795%, a Man8a ([3]; 200 nM monensin added day 3) of 0.61% and a Man8b ([3]; 200 nM monensin added day 3) of 1.17%. The “Total HM” value ([3]; 200 nM monensin added day 3) was 27.35, the Man5 ([3]; 500 nM monensin added day 3) was 11.735% and the Man6 ([3]; 500 nM monensin added day 3) was 1.545%. For the same compound, the Man7 ([3]; 500 nM monensin added day 3) was 1.045%, the Man8a ([3]; 500 nM monensin added day 3) was 0.355% and the Man8b ([3]; 500 nM monensin added day 3) was 0.2%. The “Total HM” value ([3]; 500 nM monensin added day 3) was 14.3 and the “impact on high mannose or cell culture parameters” value ([3]; monensin concentrations between 0.1 to 10 nM) was “no impacts on high mannose or cell culture parameters”.
